According to patent US20170007595A1, “NSD3 INHIBITORS FOR TREATMENT OF CANCERS” (THE BRIGHAM AND WOMEN'S HOSPITAL, INC., priority 2014, published 2017):

How the values were obtained:
macrophages = settings: cited from earlier work
[1] = tested on: 1221 cells (NSD3-NUT-positive NMC); assay: high throughput 384-well immunofluorescence analysis (keratin, Ki-67, cell number) of 1221 NMC cells; assay type: cell-based, human; settings: 72 h, dose-dependent
Procedure: For TC-797, Per403, and 8645 cells, 7×10^6 cells were transfected with 50 nM siRNA using Nucleofector II (Lonza, Basel, Switzerland) and Amaxa solution R and plated in 100 mm cell culture dish. 1221 cells were transfected using RNAi-MAX (Invitrogen) using the manufacturer's protocol. Briefly, reverse transfection procedure was used to deliver 50 nM siRNA to 33×10^4 cells in a 6 well plate. Cells were analyzed for mRNA levels 24 h after transfection. Sequences of siRNA used were: siControl, ON-TARGET plus siRNA #1 (Dharmacon, Cat # D-001810-01-20), siNUT-1 (targeting coding sequence) […] (SEQ ID NO: 57), siNUT-2 (targeting the 3′ UTR) […] (SEQ ID NO: 58), siBRD4 5′ siGENOME Human BRD4 (Dharmacon Cat # D-004937-02), siBRD4 3′ […] (SEQ ID NO: 59), siNSD3-6 ON-TARGETplus Human WHSC1L1 (54904) (Dharmacon Cat # J-012875-06), siNSD3-7, ON-TARGETplus Human WHSC1L1 (54904) siRNA (Dharmacon Cat # J-012875-07), siNSD3 3′-1 […] (SEQ ID NO: 15), si NSD3 3′-2 […] […]
Cells were transfected in 384 well format using 50 nM control siRNA (above), NSD3 siRNA (above), BRD4 siRNA, and NUT siRNA (above), as described (6), or a dose range of JQ1 treatment. […] Each condition was performed in triplicate in 384-well plate format in three separate experiments, where wells were analyzed using MetaXpress with Multi Wavelength Cell Scoring for cell number, average keratin fluorescence pixel intensity, and % Ki-67 per well. […]

BET Bromodomains = settings: cited from earlier work
[2] = target: T1, NSD3 (endogenous, wild type) (human, UniProt Q9BZ95 1-1437, limits assumed); assay: anti-HA co-immunoprecipitation from C33A-6TR lysates, Western blot with anti-NSD3
T1 construct: Endogenous protein of cell lysates detected with an anti-NSD3 antibody; also called wild type NSD3; WHSC1L1
T1 sequence: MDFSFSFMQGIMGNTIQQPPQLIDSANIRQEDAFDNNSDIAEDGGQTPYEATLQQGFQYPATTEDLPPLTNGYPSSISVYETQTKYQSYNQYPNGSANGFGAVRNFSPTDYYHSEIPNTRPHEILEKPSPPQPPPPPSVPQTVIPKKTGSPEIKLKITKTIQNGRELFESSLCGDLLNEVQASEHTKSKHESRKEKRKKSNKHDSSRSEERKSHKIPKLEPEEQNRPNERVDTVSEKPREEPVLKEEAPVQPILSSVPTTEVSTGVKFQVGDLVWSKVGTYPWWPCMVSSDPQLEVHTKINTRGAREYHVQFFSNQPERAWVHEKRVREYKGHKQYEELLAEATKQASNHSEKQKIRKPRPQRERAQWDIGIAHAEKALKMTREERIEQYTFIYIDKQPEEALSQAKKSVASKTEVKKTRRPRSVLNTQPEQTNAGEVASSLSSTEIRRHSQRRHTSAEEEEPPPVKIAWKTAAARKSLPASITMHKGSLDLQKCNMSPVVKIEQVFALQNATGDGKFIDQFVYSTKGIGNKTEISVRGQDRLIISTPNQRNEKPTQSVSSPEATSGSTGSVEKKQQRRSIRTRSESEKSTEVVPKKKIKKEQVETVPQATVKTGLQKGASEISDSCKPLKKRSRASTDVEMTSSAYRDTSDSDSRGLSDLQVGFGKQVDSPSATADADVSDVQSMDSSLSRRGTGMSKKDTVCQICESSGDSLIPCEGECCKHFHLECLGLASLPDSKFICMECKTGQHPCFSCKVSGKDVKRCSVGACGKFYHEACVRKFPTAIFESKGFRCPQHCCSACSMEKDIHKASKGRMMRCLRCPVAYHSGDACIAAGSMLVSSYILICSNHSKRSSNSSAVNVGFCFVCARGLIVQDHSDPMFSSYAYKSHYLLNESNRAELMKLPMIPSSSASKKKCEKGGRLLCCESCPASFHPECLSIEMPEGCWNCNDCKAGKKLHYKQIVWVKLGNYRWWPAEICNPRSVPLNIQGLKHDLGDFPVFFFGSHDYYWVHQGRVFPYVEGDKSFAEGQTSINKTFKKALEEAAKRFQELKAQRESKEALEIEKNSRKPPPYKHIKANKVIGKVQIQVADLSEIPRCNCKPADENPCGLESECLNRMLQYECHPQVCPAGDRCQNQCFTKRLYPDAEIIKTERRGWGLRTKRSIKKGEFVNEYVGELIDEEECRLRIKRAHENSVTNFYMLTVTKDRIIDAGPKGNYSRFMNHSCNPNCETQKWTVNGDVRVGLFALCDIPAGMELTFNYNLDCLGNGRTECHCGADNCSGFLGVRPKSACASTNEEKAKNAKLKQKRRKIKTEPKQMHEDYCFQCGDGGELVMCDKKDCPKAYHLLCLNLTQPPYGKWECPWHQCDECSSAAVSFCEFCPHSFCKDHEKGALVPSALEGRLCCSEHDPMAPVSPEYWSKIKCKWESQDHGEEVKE
Procedure: For co-immunoprecipitation experiments of HA-tagged proteins, C33A-6TR cells stably expressing HA-tagged constructs under a Tet-inducible promoter were used. Protein extracts were prepared 24 h after transfection or induction with Doxycycline (1 μg/ml). Cells were lysed in lysis buffer (50 mM Tris-HCl [pH 7.5], 150 mM NaCl, 0.5% Nonidet P-40) with freshly added protease inhibitors (Roche Complete, EDTA free protease inhibitor cocktail, Roche, Indianapolis, Ind.). Extracts were adjusted for protein concentration and 10% of extracts were used as Input Immunoprecipitations were performed using 15 μl of HA-resin (Sigma A2095). Extracts were incubated overnight at 4° C., and precipitated proteins were detected by Western blot analysis.

Molecule: CCNC(=O)C[C@@H]1N=C(c2ccc(Cl)cc2)c2cc(OC)ccc2-n2c(C)nnc21 [I-BET-762]
- production of proinflammatory proteins by macrophages (macrophages): suppresses the production of proinflammatory proteins

Molecule: Cc1sc2c(c1C)C(c1ccc(Cl)cc1)=N[C@@H](CC(=O)OC(C)(C)C)c1nnc(C)n1-2 [JQ1, (S)-tert-butyl 2-(4-(4-chlorophenyl)-2,3,9-trimethyl-6H-thieno[3,2-f][1,2,4]triazolo[4,3-a][1,4]diazepin-6-yl)acetate]
- differentiation (keratin intensity) ([1]; dose range of JQ1 vs DMSO): results in differentiation
- proliferation (cell number) ([1]; increasing concentrations of JQ1 vs DMSO): arrested proliferation

Molecule: O=c1cc(N2CCOCC2)oc2c(-c3ccccc3)cccc12 [LY294002]
- BET inhibition (BET Bromodomains): reported to be a BET inhibitor

B1: HA-tagged NUT (full length) (other)
chain: MASDGASALPGPDMSMKPSAALSPSPALPFLPPTSDPPDHPPREPPPQPIMPSVFSPDNPLMLSAFPSSLLVTGDGGPCLSGAGAGKVIVRVKTEGGSAEPSQTQNFILTQTALNSTAPGTPCGGLEGPAPPFVTASNVKTILPSKAVGVSQEGPPGLPPQPPPPVAQLVPIVPLEKAWPGPHGTTGEGGPVATLSKPSLGDRSKISKDVYENFRQWQRYKALARRHLSQSPDTEALSCFLIPVLRSLARLKPTMTLEEGLPLAVQEWEHTSNFDRMIFYEMAERFMEFEAEEMQIQNTQLMNGSQGLSPATPLKLDPLGPLASEVCQQPVYIPKKAASKTRAPRRRQRKAQRPPAPEAPKEIPPEAVKEYVDIMEWLVGTHLATGESDGKQEEEGQQQEEEGMYPDPGLLSYINELCSQKVFVSKVEAVIHPQFLADLLSPEKQRDPLALIEELEQEEGLTLAQLVQKRLMALEEEEDAEAPPSFSGAQLDSSPSGSVEDEDGDGRLRPSPGLQGAGGAACLGKVSSSGKRAREVHGGQEQALDSPRGMHRDGNTLPSPSSWDLQPELAAPQGTPGPLGVERRGSGKVINQVSLHQDGHLGGAGPPGHCLVADRTSEALPLCWQGGFQPESTPSLDAGLAELAPLQGQGLEKQVLGLQKGQQTGGRGVLPQGKEPLAVPWEGSSGAMWGDDRGTPMAQSYDQNPSPRAAGERDDVCLSPGVWLSSEMDAVGLELPVQIEEVIESFQVEKCVTEYQEGCQGLGSRGMISLGPGETLVPGDTESSVIPCGGTVAAAALEKRNYCSLPGPLRANSPPLRSKENQEQSCETVGHPSDLWAEGCFPLLESGDSTLGSSKETLPPTCQGNLLIMGTEDASSLPEASQEAGSRGSFSPLLETIEPVNILDVKDDCGLQLRVSEDTCPLNVHSYDPQGEGRVDPDLSKPKNLAPLQESQESYTTGTPKATSSHQGLGSTLPRRGTRNAIVPRETSVSKTHRSADRAKGKEKKKKEAEEEDEELSNFAYLLASKLSLSPREHPLSPHHASGGQGSQRASHLLPAGAKGPSKLPYPVAKSGKRALAGGPAPTEKTPHSGAQLGVPREKPLALGVVRPSQPRKRRCDSFVTGRRKKRRRSQ
notes: also called HA-NUT; not shown: N-terminal HA tag
- binding result [2]: no binding
